Type in all cases: toxicity, cell-based
One series deals with HEK-293T. The series can be described thus: Incucyte cell viability with HEK293T. The note with it: human, 10 µM, compound concentration 10 uM.
The next series has as its system Fibroblast. Briefly: Incucyte cell viability with human fibroblast. Conditions: 10 µM, compound concentration 10 uM.
A further series deals with U2OS. The series can be described thus: Incucyte cell viability with U2OS. The note with it: human, 10 µM, compound concentration 10 uM.

These results are taken from ChEMBL document CHEMBL5303304, “EUbOPEN Chemogenomics Library - IncuCyte” (2023).
Also: unitless GR value; below 1 slowed growth and below 0 cell loss.

On to `Cc1ccc(CNc2ncnc3ccc(-c4ccc(CO)o4)cc23)o1`, for which the “Growth Rate” value in the series on HEK-293T (6 h, replicate number 2) is 0.11; in the series on HEK-293T (12 h, replicate number 2), 0.71; in the series on HEK-293T (18 h, replicate number 2), 0.69; in the series on HEK-293T (24 h, replicate number 2), 0.79; with Fibroblast (0 h, replicate number 2), 0.71; with Fibroblast (6 h, replicate number 1), -1. For the same compound, the “Growth Rate” value in the series with U2OS (0 h, replicate number 1) is -0.83; in the series on U2OS (18 h, replicate number 2) it was 0.94; with U2OS (24 h, replicate number 2), 0.86.

Take `COc1cccc(Cn2cc(C(=O)Nc3ccc(C)c(S(=O)(=O)N4CCOCC4)c3)c(-c3ccc(C)cc3)n2)c1`: the “Growth Rate” value with HEK-293T (0 h, replicate number 2) was -0.05; in the series with HEK-293T (6 h, replicate number 1), 0.76; with HEK-293T (18 h, replicate number 1), 0.99; in the series with HEK-293T (24 h, replicate number 1), 0.96; in the series on Fibroblast (0 h, replicate number 2), 0.55; with Fibroblast (6 h, replicate number 1), 0.43. Further, the “Growth Rate” value with Fibroblast (6 h, replicate number 2) is 0.77; in the series on Fibroblast (12 h, replicate number 1) it was 0.7; in the series on Fibroblast (18 h, replicate number 1), 0.89; in the series on U2OS (12 h, replicate number 1), 0.96.

Consider `O=C1C[C@@H]2OCC=C3CN4CC[C@]56c7ccccc7N1[C@H]5[C@H]2[C@H]3C[C@H]46` [STRYCHNINE], for which the “Growth Rate” value in the series on HEK-293T (0 h, replicate number 1) is recorded as 0.93; in the series on HEK-293T (0 h, replicate number 2) it was 0.94; in the series on HEK-293T (6 h, replicate number 2), 0.44; in the series with HEK-293T (12 h, replicate number 2) it was 0.86; with Fibroblast (0 h, replicate number 2), -0.75; with Fibroblast (6 h, replicate number 1), 0.71. The “Growth Rate” value in the series with Fibroblast (12 h, replicate number 1) is -0.92; with Fibroblast (18 h, replicate number 1), 0.57; in the series on Fibroblast (18 h, replicate number 2), 0.93; with Fibroblast (24 h, replicate number 1), 0.81; with Fibroblast (24 h, replicate number 2), 0.91; in the series with U2OS (6 h, replicate number 2) it was 0.65. Besides, the “Growth Rate” value is 0.95 in the series with U2OS (12 h, replicate number 1); 0.85 with U2OS (12 h, replicate number 2); 0.88 in the series with U2OS (18 h, replicate number 1); 0.77 with U2OS (18 h, replicate number 2); 0.87 in the series on U2OS (24 h, replicate number 1); 0.91 in the series with U2OS (24 h, replicate number 2).

For `COC(=O)c1sccc1S(=O)(=O)Nc1ccc(Nc2ccccc2)cc1OC`, the “Growth Rate” value with HEK-293T (0 h, replicate number 2) was -0.92; in the series with HEK-293T (6 h, replicate number 2) it was 0.93; in the series on HEK-293T (12 h, replicate number 2), 0.77; in the series with Fibroblast (0 h, replicate number 2) it was 0.71; in the series with Fibroblast (6 h, replicate number 2), 0.48; in the series on Fibroblast (12 h, replicate number 2) it was 0.47. Also, the “Growth Rate” value in the series on Fibroblast (18 h, replicate number 2) is 0.95; with Fibroblast (24 h, replicate number 2), 0.74; in the series on U2OS (0 h, replicate number 1), -0.11; in the series with U2OS (6 h, replicate number 1), 0.61; in the series with U2OS (6 h, replicate number 2), 0.91; in the series with U2OS (12 h, replicate number 1) it was 0.91. Also, the “Growth Rate” value is reported as 0.81 in the series on U2OS (18 h, replicate number 1); 0.9 in the series with U2OS (18 h, replicate number 2); 0.82 with U2OS (24 h, replicate number 2).

On to `NC(=O)OC[C@H](NC(=O)Cn1nc(-c2ccc(Cl)cc2)n(C[C@H](O)C(F)(F)F)c1=O)c1cccc(C(F)(F)F)c1`, for which the “Growth Rate” value in the series on HEK-293T (0 h, replicate number 1) is reported as 0.72; with HEK-293T (0 h, replicate number 2), -0.43; in the series with HEK-293T (12 h, replicate number 1) it was 0.8; in the series with HEK-293T (18 h, replicate number 1) it was 0.84; in the series with HEK-293T (18 h, replicate number 2), 0.83; with HEK-293T (24 h, replicate number 1), 0.71. In addition, the “Growth Rate” value in the series with HEK-293T (24 h, replicate number 2) is given as 0.79; with Fibroblast (0 h, replicate number 2), 0.27; in the series on Fibroblast (6 h, replicate number 1), 0.56; in the series with Fibroblast (6 h, replicate number 2), -0.17; in the series on Fibroblast (12 h, replicate number 1), 0.83; in the series on Fibroblast (12 h, replicate number 2) it was 0.75. Moreover, the “Growth Rate” value in the series on Fibroblast (18 h, replicate number 1) was 0.71; in the series on Fibroblast (18 h, replicate number 2) it was 0.65; with Fibroblast (24 h, replicate number 1), 0.84; in the series on Fibroblast (24 h, replicate number 2), 0.7; in the series on U2OS (0 h, replicate number 1), 0.95; with U2OS (6 h, replicate number 1), 0.83. In addition, the “Growth Rate” value with U2OS (12 h, replicate number 1) stood at 0.85; with U2OS (24 h, replicate number 1) it was 0.9.

For `Clc1cccc(Nc2nccc(NCCCN3CCOCC3)n2)c1`, the “Growth Rate” value with HEK-293T (0 h, replicate number 2) is on record as 0.13; in the series on HEK-293T (6 h, replicate number 1) it was 0.27; in the series on HEK-293T (12 h, replicate number 1), 0.34; in the series on HEK-293T (18 h, replicate number 1), 0.37; in the series with HEK-293T (18 h, replicate number 2), 0.82; in the series with HEK-293T (24 h, replicate number 1) it was 0.38. For the same compound, the “Growth Rate” value in the series with HEK-293T (24 h, replicate number 2) was 0.69; in the series on Fibroblast (0 h, replicate number 1) it was -0.99; in the series with Fibroblast (0 h, replicate number 2) it was -0.07; in the series with Fibroblast (6 h, replicate number 1), 0.51; in the series with Fibroblast (6 h, replicate number 2) it was 0.14; in the series with Fibroblast (12 h, replicate number 1), 0.59. The “Growth Rate” value in the series on Fibroblast (12 h, replicate number 2) is listed as 0.39; in the series with Fibroblast (18 h, replicate number 1) it was 0.6; in the series on Fibroblast (18 h, replicate number 2), 0.57; with Fibroblast (24 h, replicate number 1) it was 0.48; in the series with Fibroblast (24 h, replicate number 2), 0.53; in the series with U2OS (0 h, replicate number 1) it was -0.75. Also, the “Growth Rate” value is listed as 0.73 with U2OS (6 h, replicate number 2); 0.73 with U2OS (12 h, replicate number 2); 0.82 with U2OS (18 h, replicate number 2); 0.7 in the series on U2OS (24 h, replicate number 2).

Take `CCN1C(=O)c2cc(C)ccc2N(C)c2ncccc21`: the “Growth Rate” value is given as 0.6 in the series with HEK-293T (0 h, replicate number 1); 0.45 in the series with HEK-293T (0 h, replicate number 2); 0.52 in the series with HEK-293T (6 h, replicate number 1); 1 in the series with HEK-293T (6 h, replicate number 2); 0.32 in the series with HEK-293T (12 h, replicate number 1); 0.41 in the series with HEK-293T (12 h, replicate number 2). For the same compound, the “Growth Rate” value in the series with HEK-293T (18 h, replicate number 1) is on record as 0.42; in the series on HEK-293T (18 h, replicate number 2), 0.71; in the series with HEK-293T (24 h, replicate number 1), 0.65; in the series with HEK-293T (24 h, replicate number 2), 0.74; in the series on Fibroblast (0 h, replicate number 1) it was -1; with Fibroblast (0 h, replicate number 2), -0.91. The “Growth Rate” value is listed as 0.13 in the series with Fibroblast (6 h, replicate number 1); 0.79 in the series with Fibroblast (6 h, replicate number 2); 0.88 in the series on Fibroblast (12 h, replicate number 1); 0.29 with Fibroblast (12 h, replicate number 2); 0.79 with Fibroblast (18 h, replicate number 1); 0.88 in the series on Fibroblast (18 h, replicate number 2). In addition, the “Growth Rate” value came out at 0.61 in the series on U2OS (0 h, replicate number 2); 0.81 with U2OS (6 h, replicate number 2); 0.87 in the series on U2OS (12 h, replicate number 1); 0.85 in the series on U2OS (12 h, replicate number 2); 0.7 in the series with U2OS (18 h, replicate number 2); 0.8 in the series on U2OS (24 h, replicate number 2).

On to `N#CC[C@H](C1CCCC1)n1cc(-c2ncnc3[nH]ccc23)cn1` [RUXOLITINIB], for which the “Growth Rate” value is listed as -0.91 in the series with HEK-293T (0 h, replicate number 1); -0.15 in the series with HEK-293T (0 h, replicate number 2); 0.27 with HEK-293T (6 h, replicate number 1); 0.86 in the series on HEK-293T (12 h, replicate number 1); -1 with Fibroblast (0 h, replicate number 1); -1 in the series on U2OS (0 h, replicate number 1).

Turning to `COc1ccccc1-c1cc(Nc2cccc(CS(N)(=O)=O)c2)ncn1`, the “Growth Rate” value in the series on HEK-293T (6 h, replicate number 1) is listed as -0.26; with HEK-293T (6 h, replicate number 2) it was -0.38; with HEK-293T (12 h, replicate number 1), -0.07; in the series with HEK-293T (12 h, replicate number 2), -0.15; in the series on HEK-293T (18 h, replicate number 1) it was 0.16; in the series with HEK-293T (18 h, replicate number 2) it was 0.21. Besides, the “Growth Rate” value in the series with HEK-293T (24 h, replicate number 1) is listed as 0.38; in the series with HEK-293T (24 h, replicate number 2) it was 0.33; in the series with Fibroblast (0 h, replicate number 2), -0.71; in the series on Fibroblast (6 h, replicate number 1), 0.43; in the series with Fibroblast (12 h, replicate number 1), 0.63; in the series with Fibroblast (18 h, replicate number 1) it was 0.61. Also, the “Growth Rate” value in the series on Fibroblast (18 h, replicate number 2) is 0.93; with Fibroblast (24 h, replicate number 1), 0.52; with Fibroblast (24 h, replicate number 2) it was 0.59; in the series with U2OS (6 h, replicate number 1), 0.81; in the series on U2OS (6 h, replicate number 2), 0.46; with U2OS (12 h, replicate number 1), 0.51. The “Growth Rate” value in the series with U2OS (12 h, replicate number 2) was 0.46; in the series on U2OS (18 h, replicate number 1), 0.22; in the series with U2OS (18 h, replicate number 2), 0.43; with U2OS (24 h, replicate number 1), 0.46; in the series with U2OS (24 h, replicate number 2) it was 0.49.

For the compound `Cc1ncsc1-c1ccc(CNC(=O)[C@@H]2C[C@H](O)CN2C(=O)[C@@H](NC(=O)C2(F)CC2)C(C)(C)C)c(OCCOc2ccc(CN3CCN(c4cc(-c5ccccc5O)nnc4N)CC3)cc2)c1`, the “Growth Rate” value was -0.03 in the series with HEK-293T (0 h, replicate number 1); -0.99 in the series with HEK-293T (0 h, replicate number 2); 0.56 with Fibroblast (0 h, replicate number 2); 0.98 with U2OS (24 h, replicate number 1).

In the case of `CC(C)(O)c1ccc2c(c1)ncn2-c1cccc(-c2ccccc2C#N)c1`, the “Growth Rate” value with HEK-293T (6 h, replicate number 1) is on record as 0.78; with HEK-293T (6 h, replicate number 2) it was -0.24; in the series on HEK-293T (12 h, replicate number 1), 0.77; in the series with HEK-293T (12 h, replicate number 2), 0.2; with HEK-293T (18 h, replicate number 1), 0.65; with HEK-293T (18 h, replicate number 2), 0.48. Also, the “Growth Rate” value is recorded as 0.73 with HEK-293T (24 h, replicate number 1); 0.54 with HEK-293T (24 h, replicate number 2); 0.6 in the series on Fibroblast (0 h, replicate number 1); -0.48 in the series on Fibroblast (0 h, replicate number 2); -0.67 in the series with Fibroblast (6 h, replicate number 2); 0.43 in the series with Fibroblast (12 h, replicate number 1). Moreover, the “Growth Rate” value in the series on Fibroblast (12 h, replicate number 2) is 0.33; in the series on Fibroblast (18 h, replicate number 1) it was 0.64; in the series with Fibroblast (18 h, replicate number 2) it was 0.52; in the series on Fibroblast (24 h, replicate number 1) it was 0.28; in the series on U2OS (0 h, replicate number 1), 0.93; in the series on U2OS (0 h, replicate number 2), 0.83.
